“And” between values parts separate entries of the source, which are not always exact repeats. Equal entries are not always repeated. Inconclusive results and toxic doses are left out. Cut-off read from the data, not from the text of the source: active = T/C of 150% or more; inactive = T/C below 125%.
Tested on: L1210 leukemia ip in BDF1 mice, survival T/C
Assay: NCI In Vivo Anticancer Drug Screen. Data for tumor model L1210 Leukemia (intraperitoneal) in B6D2F1 (BDF1) mice
Details: endpoint: mean survival time, higher = longer survival
Procedure, shortened: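 Read-out is survival time, reported as the treated-group measurement over the vehicle-control measurement.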

[1] = dose: 100.0 mg/kg/injection, schedule: Q01DX001 (ip), vehicle: saline
[2] = dose: 100.0 mg/kg/injection, schedule: Q01DX009 (ip), vehicle: saline
[3] = dose: 200.0 mg/kg/injection, schedule: Q01DX001 (ip), vehicle: saline
[4] = dose: 400.0 mg/kg/injection, schedule: Q01DX001 (ip), vehicle: saline
[5] = dose: 75.0 mg/kg/injection, schedule: Q01DX001 (ip), vehicle: other
[6] = dose: 100.0 mg/kg/injection, schedule: Q04DX003 (ip), vehicle: Klucel (hydroxypropylcellulose) (HPC)
[7] = dose: 200.0 mg/kg/injection, schedule: Q04DX003 (ip), vehicle: Klucel (hydroxypropylcellulose) (HPC)
[8] = dose: 400.0 mg/kg/injection, schedule: Q04DX003 (ip), vehicle: Klucel (hydroxypropylcellulose) (HPC)
[9] = dose: 25.0 mg/kg/injection, schedule: Q01DX009 (ip), vehicle: saline with Tween-80
[10] = dose: 100.0 mg/kg/injection, schedule: Q04DX003 (ip), vehicle: saline
[11] = dose: 200.0 mg/kg/injection, schedule: Q04DX003 (ip), vehicle: saline
[12] = dose: 400.0 mg/kg/injection, schedule: Q04DX003 (ip), vehicle: saline

Measured: T/C

CCCCNC(c1ccc(C=NC(CC)(CO)CO)cc1)C(Br)(Br)Br (stereo not drawn)
inactive: [1] 92 % of control | [2] 88 % of control | [3] 92 % of control | dose: 200.0 mg/kg/injection, schedule: Q01DX009 (ip), vehicle: saline 90 % of control | [4] 97 % of control | dose: 400.0 mg/kg/injection, schedule: Q01DX009 (ip), vehicle: saline 91 % of control

C=C(C)C1Cc2c(ccc3c2OC2COc4cc(OC)c(OC)cc4C2(O)C3=O)O1 (stereo not drawn)
inactive: dose: 12.5 mg/kg/injection, schedule: Q01DX009 (ip), vehicle: carboxymethylcellulose (CMC) 107 % of control

O=S(=O)(Nc1nccs1)c1ccc(Nc2ccnc3cc(Cl)ccc23)cc1
inactive: [1] 93 % of control | [3] 95 % of control | [4] 87 % of control

COc1ccc2cnnc(NN)c2c1
inactive: [5] 97 % of control

Cc1c(O)c([N+](=O)[O-])cc2c1OCOC2
inactive: [6] 96 % of control | [7] 102 % of control | [8] 93 % of control

ClC1=NC(Cl)C(Cl)=N/C1=N\c1ncn[nH]1 (stereo not drawn)
inactive: dose: 6.25 mg/kg/injection, schedule: Q01DX009 (ip), vehicle: saline with Tween-80 103 % of control | dose: 12.5 mg/kg/injection, schedule: Q01DX009 (ip), vehicle: saline with Tween-80 97 % of control | [9] 105 % of control | dose: 31.25 mg/kg/injection, schedule: Q01DX009 (ip), vehicle: saline with Tween-80 87 % of control

Cc1ccc(NN)c(Br)c1
inactive: [10] 104 % of control | [11] 106 % of control | [12] 101 % of control

Cc1cc(=O)n(-c2ccccc2)c2ccccc12
inactive: [1] 103 % of control | [3] 97 % of control | [4] 100 % of control

CCCCCCCCCC(O)CCCC (stereo not drawn)
inactive: [9] 108 % of control | dose: 50.0 mg/kg/injection, schedule: Q01DX009 (ip), vehicle: saline with Tween-80 97 % of control | dose: 100.0 mg/kg/injection, schedule: Q01DX009 (ip), vehicle: saline with Tween-80 94 % of control and 98 % of control | dose: 100.0 mg/kg/injection, schedule: Q04DX003 (ip), vehicle: saline with Tween-80 98 % of control | dose: 200.0 mg/kg/injection, schedule: Q04DX003 (ip), vehicle: saline with Tween-80 98 % of control | dose: 400.0 mg/kg/injection, schedule: Q04DX003 (ip), vehicle: saline with Tween-80 96 % of control

O=S1Oc2ccccc2O1
inactive: dose: 75.0 mg/kg/injection, schedule: Q01DX001 (ip), vehicle: saline 117 % of control | dose: 150.0 mg/kg/injection, schedule: Q01DX001 (ip), vehicle: saline 103 % of control

NC(=O)N1c2ccccc2C=Cc2ccccc21
inactive: dose: 12.5 mg/kg/injection, schedule: Q01DX009 (ip), vehicle: Klucel (hydroxypropylcellulose) (HPC) 93 % of control | dose: 25.0 mg/kg/injection, schedule: Q01DX009 (ip), vehicle: Klucel (hydroxypropylcellulose) (HPC) 93 % of control | dose: 50.0 mg/kg/injection, schedule: Q01DX009 (ip), vehicle: Klucel (hydroxypropylcellulose) (HPC) 96 % of control | dose: 100.0 mg/kg/injection, schedule: Q01DX009 (ip), vehicle: Klucel (hydroxypropylcellulose) (HPC) 89 % of control | dose: 100.0 mg/kg/injection, schedule: Q04DX002 (ip), vehicle: Klucel (hydroxypropylcellulose) (HPC) 103 % of control | dose: 200.0 mg/kg/injection, schedule: Q01DX009 (ip), vehicle: Klucel (hydroxypropylcellulose) (HPC) 94 % of control | dose: 200.0 mg/kg/injection, schedule: Q04DX002 (ip), vehicle: Klucel (hydroxypropylcellulose) (HPC) 110 % of control | dose: 400.0 mg/kg/injection, schedule: Q04DX002 (ip), vehicle: Klucel (hydroxypropylcellulose) (HPC) 110 % of control

Nc1ccc(N=Nc2ccc(C(=O)Nc3ccc4cc(S(=O)(=O)O)ccc4c3)cc2)c(N)c1N=Nc1ccc(N=Nc2ccc(O)c(C(=O)O)c2)cc1
inactive: dose: 25.0 mg/kg/injection, schedule: Q01DX001 (ip), vehicle: saline 94 % of control | dose: 25.0 mg/kg/injection, schedule: Q01DX009 (ip), vehicle: saline 105 % of control | dose: 25.0 mg/kg/injection, schedule: Q04DX003 (ip), vehicle: saline 109 % of control | dose: 50.0 mg/kg/injection, schedule: Q01DX001 (ip), vehicle: saline 90 % of control | dose: 50.0 mg/kg/injection, schedule: Q01DX009 (ip), vehicle: saline 94 % of control | dose: 50.0 mg/kg/injection, schedule: Q04DX003 (ip), vehicle: saline 95 % of control | [1] 97 % of control | [2] 87 % of control | [10] 102 % of control

O=C[N]([Hg][Cl])c1ccccc1
inactive: dose: 0.39 mg/kg/injection, schedule: Q01DX009 (ip), vehicle: saline with Tween-80 102 % of control | dose: 0.78 mg/kg/injection, schedule: Q01DX009 (ip), vehicle: saline with Tween-80 102 % of control | dose: 1.56 mg/kg/injection, schedule: Q01DX009 (ip), vehicle: saline with Tween-80 87 % of control | dose: 1.56 mg/kg/injection, schedule: Q01DX009 (ip), vehicle: saline 94 % of control

C/C=C/C(OCC)OCC
inactive: dose: 25.0 mg/kg/injection, schedule: Q01DX009 (ip), vehicle: water 105 % of control | dose: 50.0 mg/kg/injection, schedule: Q01DX009 (ip), vehicle: water 111 % of control | dose: 100.0 mg/kg/injection, schedule: Q01DX009 (ip), vehicle: water 106 % of control

CC(C)(C)OC(=O)N/N=C/c1ccc2c(c1)OCO2
inactive: [6] 95 % of control | [7] 97 % of control | [8] 97 % of control

COc1cc(/C=N/NC(=O)C(=O)N/N=C/c2cc(OC)c(OC)c(OC)c2)cc(OC)c1OC
inactive: [5] 94 % of control | dose: 150.0 mg/kg/injection, schedule: Q01DX001 (ip), vehicle: other 90 % of control | dose: 300.0 mg/kg/injection, schedule: Q01DX001 (ip), vehicle: other 89 % of control

COc1ccc(C(=O)c2cccs2)cc1
inactive: dose: 50.0 mg/kg/injection, schedule: Q01DX009 (ip), vehicle: saline sonified 101 % of control | dose: 100.0 mg/kg/injection, schedule: Q01DX009 (ip), vehicle: saline sonified 104 % of control | [6] 97 % of control | dose: 200.0 mg/kg/injection, schedule: Q01DX009 (ip), vehicle: saline sonified 102 % of control | [7] 94 % of control

CC(=O)N1CCOCC1
inactive: [10] 93 % of control | [11] 98 % of control | [12] 102 % of control

CO/N=C/c1ccc([N+](=O)[O-])cc1
inactive: dose: 100.0 mg/kg/injection, schedule: Q01DX001 (ip), vehicle: Klucel (hydroxypropylcellulose) (HPC) 96 % of control | dose: 200.0 mg/kg/injection, schedule: Q01DX001 (ip), vehicle: Klucel (hydroxypropylcellulose) (HPC) 95 % of control | dose: 400.0 mg/kg/injection, schedule: Q01DX001 (ip), vehicle: Klucel (hydroxypropylcellulose) (HPC) 98 % of control

— PubChem BioAssay AID248 (DTP/NCI, 2004)
